# Experimental data published in publication PMC5502072 (Investigational New Drugs, 2017).
# Entries after “also recorded” stand apart in the source; their conditions may differ. Where two headings read alike, the source gives them in different places.
# Tests used:
# advanced solid tumors = details: all responders had FGFR2 or FGFR3 translocations; cited from earlier work
# [1] = tested on: lung squamous cell carcinoma; urothelial carcinoma with FGFR3 alterations; details: cited from earlier work
# several tumour types = details: cited from earlier work
# advanced solid tumours = test: Preliminary antitumour efficacy (RECIST v1.1); type: in vivo, human
# Description: Tumour assessments were performed according to Response Evaluation Criteria in Solid Tumors version 1.1 (RECIST v1.1) at baseline, on day 21 of the first treatment cycle, then every 6 weeks after the start of treatment for 12 weeks, and thereafter every 12 weeks (±1 week) until discontinuation of study treatment or withdrawal of consent.
# [2] = previously treated advanced/metastatic UC with FGFR3 alterations
# [3] = one patient with FGFR1-amplified squamous NSCLC, 80 mg bid
compound,measurement,setting,value
COc1cc(OC)cc(N(CCNC(C)C)c2ccc3ncc(-c4cnn(C)c4)nc3c2)c1 [JNJ-42756493],Patients with PR,advanced solid tumors,4/23
CCN1CCN(c2ccc(Nc3cc(N(C)C(=O)Nc4c(Cl)c(OC)cc(OC)c4Cl)ncn3)cc2)CC1 [BGJ398],Patients with PR,"[1]; lung squamous cell carcinoma, selected by FGFR amplification status",2/17
same,Complete response,[1]; [2],one unconfirmed complete response
same,Patients with PR,[1]; [2],8/25
AZD4547,Patients with stable disease,several tumour types; 4/21 additional patients,19%
same,Best response,several tumour types; [3],partial response
same,Duration of PR,several tumour types; [3],≥ 12 weeks
same,Patients with stable disease (≥4 weeks' duration),advanced solid tumours; Part A,70%
same,Patients with stable disease ≥4 weeks,advanced solid tumours; Part A,21/30
same,Range of percentage change in the sum of the diameters of target lesions,advanced solid tumours; Part A,–6.8% to 48.9
same,Median percentage change in the sum of the diameters of target lesions,advanced solid tumours; Part A (25/30 patients),5.9%
same,Patients with stable disease (≥4 weeks' duration),"advanced solid tumours; Part A, 40 mg bid",3 n
same,Patients with stable disease (≥4 weeks' duration),"advanced solid tumours; Part A, 80 mg bid",3 n
same,Patients with stable disease (≥4 weeks' duration),"advanced solid tumours; Part A, 120 mg bid",5 n
same,Patients with stable disease (≥4 weeks' duration),"advanced solid tumours; Part A, 160 mg qd",10 n
same,Range of percentage change in the sum of the diameters of target lesions,advanced solid tumours; Part B,–16.3% to 23.4
same,Median percentage change in the sum of the diameters of target lesions,advanced solid tumours; Part B (all patients),3.0%
same,Patients continuing to experience stable disease at 10 weeks,"advanced solid tumours; Part B, 80 mg bid",25.0%
same,Patients with stable disease ≥10 weeks,"advanced solid tumours; Part B, 80 mg bid",1/4
same,Complete responses and partial responses (RECIST v1.1),advanced solid tumours; Parts A and B,No complete or partial responses were observed; also recorded: not observed
